Results taken from patent publication US20220117266A1, “NICKEL CHELATION THERAPY” (priority 2019, published 2022).

What was measured:
[1] = target: Aβ40 peptide (Homo sapiens, UniProt P05067); assay: Isothermal titration calorimetry; format: binding; set-up: purchased rPeptides, Watkinsville, Ga., USA kit #A-1180-1; host or cells: E. coli; conditions: 1 mM DMG injected instead of nickel; data not shown
Description: Nickel binding to human recombinant Aβ40 peptide is confirmed by isothermal titration calorimetry. Isothermal titration calorimetry (ITC) has been already used to analyze copper or zinc binding to various Aβ peptides, including Ab40 (Talmard et al. Biochemistry 46, 13658-13666 (2007); Sacco et al. JBIC Journal of Biological Inorganic Chemistry 17, 531-541 (2012); Hatcher et al. The journal of physical chemistry B 112, 8160-8164 (2008)). In the current study, we used ITC to determine whether nickel can bind the Aβ40 peptide. The peptide (same used in ThT-based aggregation assays) was present in the sample cell at a concentration of 20 μM. Twenty injections of NiSO4 (1 mM solution, 5 μM increments in sample cell) were performed every 5 min under constant stirring (350 rpm) at 25° C., and the heat release was measured (FIG. 9). The heat release profile indicates Ni binding to the peptide (FIG. 9, top Panel).
Isothermal Titration Calorimetry. […] Briefly, 1 mg of lyophilized Aβ40 peptide (#A-1157-2, rPeptides) was resuspended with 1% NH4OH to a concentration of 250 μM, sonicated for 15-20 sec, before being diluted to a final concentration of 20 μM Aβ40 using ddH2O and TBS 10×, pH 7.4 (working buffer: NH4OH 0.2%, TBS 1×, pH 7.4 (“NTBS”)). […] All samples were degassed for 15 min at 25° C. before use. Titration was initiated using a program for 20 injections (2.38 μL each, every 5 min) with continuous stirring (350 rpm) at constant temperature (25° C.). ITC data were analyzed using NanoAnalyze 1.2 software (TA Instruments). Data obtained with the control experiment (Aβ40 peptide in sample cell, buffer in syringe) were subtracted from each experiment to account for any injection-related heat change.

[2] = test system: MDR K. pneumoniae; assay: Galleria mellonella infection model; format: in vivo; conditions: 5 μl of 250 mM DMG (approx. 0.38 mg) injected five to ten minutes prior to bacterial challenge
Protocol: (§1) Attempts to establish a reliable K. pneumoniae infection model in mice failed, so an alternate animal model was chosen.
(§2) Galleria mellonella (wax moth) experiments. Wax moth larvae were obtained from local pet stores, from two different suppliers: the bug company (Ham Lake, Minn.; www.ebugco.com) and Timberline (Marion, Ill.; www.timberlinefresh.com). Larvae were stored in wood shavings at 4° C. in the dark and used within two weeks after purchase. Only larvae weighing 300±50 mg were selected for the experiments. Groups of ten larvae were used for each experiment. The site of injection (last right or left proleg) was disinfected with ethanol 70% (vol/vol) before and after each injection. A 10 μL-Hamilton syringe fitted with a […] needle (Becton Dickinson, Franklin Lakes, N.J.) was used to inject 5 μL. After injection, larvae were kept in 9.2-cm Petri dishes at 37° C. in the dark with no food. Larvae were monitored daily for […] and mortality (as defined by change of pigmentation and absence of response following physical stimulation) was recorded. […] Bacterial suspensions were prepared as follows: cells were grown overnight in 5 mL of Mueller Hinton broth, harvested, washed once, and resuspended in sterile 0.8% NaCl to a final OD600 of 0.1 (approximately 10^8 CFU/mL, as determined by CFU counts on serially diluted samples).

[3] = test system: MDR S. Typhimurium; assay: Galleria mellonella infection model; format: in vivo; conditions: 5 μl of 250 mM DMG (approx. 0.38 mg) injected five to ten minutes prior to bacterial challenge
Protocol: as §1, §2

[4] = test system: MDR K. pneumoniae (ATCC BAA2472); assay: DMG growth inhibition in liquid culture (CFU/mL); format: cell-based, Klebsiella pneumoniae
Protocol: Growth conditions. All strains were routinely grown on LB agar plates or in LB broth. For DMG-growth inhibition study, S. Typhimurium strains ATCC 14028 and ATCC 700408 were grown in M9 minimal medium (M9 minimal salts, 0.4% glucose, 2 mM MgSO4, 0.1 mM CaCl2), and 1 μg/mL thiamine, pH 7.2). K. pneumoniae was grown in “W-U” medium, modified from Bender et al. 1977 129:1001-1009, containing 60 mM K2HPO4, 33 mM KH2PO4, 0.4 mM MgSO4, 0.4% Glucose, and 5 mM urea (instead of KNO3), pH 7.4. Briefly, overnight cultures of S. Typhimurium and K. pneumoniae were harvested, spun at 14,000 rpm for five minutes, washed once with either M9 (S. Typhimurium) or W-U (K. pneumoniae) and resuspended in either M9 (S. Typhimurium) or W-U (K. pneumoniae). […] Cells were incubated for 24 hours at 37° C. with shaking at 250 rpm, then serially diluted in PBS and 5 μL of each dilution was spotted in triplicate on LB plate. Colony forming units (CFU) were counted after 16 hours at 37° C. Each growth experiment was done at least three times.

[5] = test system: H2-uptake hydrogenase activity in S. Typhimurium 14028; assay: Amperometric hydrogenase assay on whole cells grown with DMG; format: cell-based
Protocol: H2-uptake hydrogenase activity is required for colonization in a murine model.
Amperometric hydrogenase assays. […] Cells were suspended in phosphate-buffered saline (PBS) to a final concentration of 8×10^8, per mL and added to a sealed amperometric dual-electrode chamber, with constant stirring; 100 μL of H2-saturated phosphate-buffered saline was added to the chamber and the disappearance of H2 was recorded over time. Hydrogenase activity is expressed in nmoles of H2 oxidized per minute per 10^8 cells.

[6] = test system: C. jejuni (strain 81-176, ATCC BAA-2151); assay: Growth inhibition, solid plates (CFU); format: cell-based, Campylobacter jejuni

Aβ40 peptide, sequence (P05067 672-711): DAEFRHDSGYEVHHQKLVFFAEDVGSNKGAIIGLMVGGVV

CC(=NO)C(C)=NO [DMG, dimethylglyoxime]
binding to Aβ40 peptide (ITC) [1]: cannot bind to the peptide | survival rate of larvae [2]: 40% | survival rate of larvae [3]: 60% | effect on bacterial growth ([4]; DMG at 2.5 mM, 5 mM, or 7.5 mM): no measurable effect | inhibition at 10000 µM ([4]; Klebsiella pneumoniae, ATCCBAA2472, 24 h): > 100% | increase in hydrogenase activity compared to the 1 mM DMG medium ([5]; 1 mM DMG + 50 μM NiCl2): 50% | Hydrogenase activity ([5]; DMG 0.1 mM in blood-based medium, six hours, H2-enriched microaerobic, DMG D1885 (anhydrous)): 14.0 ± 2.7 nmoles H2 oxidized per minute per 10^9 cells | Hydrogenase activity ([5]; DMG 0.5 mM): 4.6 ± 1.2 nmoles H2 oxidized per minute per 10^9 cells | Hydrogenase activity ([5]; DMG 1 mM): 3.9 ± 0.9 nmoles H2 oxidized per minute per 10^9 cells | Hydrogenase activity ([5]; DMG 1 mM + NiCl2 0.05 mM): 6.9 ± 1.7 nmoles H2 oxidized per minute per 10^9 cells | Hydrogenase activity ([5]; DMG 5 mM): 0.8 ± 0.1 nmoles H2 oxidized per minute per 10^9 cells | effect on growth (CFUs) ([6]; BHI plates, 5 mM DMG + CuSO4 1 μM to 500 μM, no detectable growth (detection limit: 200 CFUs)): bactericidal | effect on growth (CFUs, colony size) ([6]; BHI plates, 5 mM DMG, 24 hours): bacteriostatic | effect on growth ([6]; DMG (2 mM)/Cu (0.5 mM) combination): bactericidal
